Assay results taken from US5792831A, “Analogues of magainin peptides containing D-amino acids” (priority 1994, dated 1998).
Values after ≈ are worked out from the molar mass of the structure shown. Square brackets hold non-standard residues; d marks the D form. Ends that are not written are not given here. Peptide text beside a SMILES is read from it. * marks the point of attachment. Octanoyl = CCCCCCCC(=O)*

Legend:
Format in all cases: cell-based
[1] = tested on: melanoma cell line WM983B; experiment: 3H-thymidine radioactive counts, melanoma cells (Example 6); settings: 2% tumor media
[2] = tested on: melanoma cell line WM902B; experiment: as above; settings: 2% tumor media
WM793 (primary melanoma) = experiment: Melanoma growth reduction, 3H-thymidine incorporation (Example 4); settings: 2% tumor medium
Experimental: (§1) Melanoma cell lines WM-239-A (metastatic melanoma), WM278 (primary melanoma), WM793 (primary melanoma) and WM1158 (metastatic melanoma) were seeded in 24-well plates at a concentration of 7.5×10^4 cells/ml containing 2% tumor medium.
(§2) Peptides (SEQ ID NO:6) and D-(SEQ ID NO:6), in which each amino acid residue is a D-amino residue or a glycine residue, were frozen at -20° C. in […] aliquots at a concentration of 25 mg/ml. Each peptide was then dissolved in sterile distilled water at a dilution of 1:1,000 or 1:5,000 to provide peptide concentrations of 25 μg/ml or 5 μg/ml, respectively. The peptides at the 25 μg/ml or 5 μg/ml concentrations were then added to the plates containing the melanoma cells. The amount of ^3 H-thymidine incorporation for each well was taken on days 1, 3, and 7.

WM278 (primary melanoma) = experiment: as above; settings: 2% tumor medium
Experimental: as §1, §2

[3] = tested on: WM1158 (metastatic melanoma); experiment: as above; settings: 2% tumor medium
Experimental: as §1, §2

[4] = tested on: WM-239-A (metastatic melanoma); experiment: as above; settings: 2% tumor medium
Experimental: as §1, §2

[5] = tested on: melanoma cell line WM1791A; experiment: 3H-thymidine radioactive counts, melanoma cells (Example 6); settings: 2% tumor media
melanoma cell line WM973 = experiment: as above; settings: 2% tumor media
melanoma cell line WM39 = experiment: as above; settings: 2% tumor media
melanoma cell line WM852 [6] = experiment: as above; settings: 2% tumor media
melanoma cell line WM8 = experiment: as above; settings: 2% tumor media
melanoma cell line WM35 = experiment: as above; settings: 2% tumor media
[7] = tested on: melanoma cell line WM239A; experiment: as above; settings: 2% tumor media
melanoma cell line WM164 = experiment: as above; settings: 2% tumor media
melanoma cell line WM115 = experiment: as above; settings: 2% tumor media
[8] = tested on: melanoma cell line WM1158; experiment: as above; settings: 2% tumor media
[9] = tested on: melanoma cell line SkMe123; experiment: as above; settings: 2% tumor media
[10] = tested on: melanoma cell line WM1366; experiment: as above; settings: 2% tumor media
[11] = tested on: melanoma cell line WM983A; experiment: as above; settings: 2% tumor media
[12] = tested on: melanoma cell line WM983A; experiment: Melanoma growth reduction (Example 5); settings: dose 25 μg/ml
Experimental: as §1, §2
(§3) Peptides (SEQ ID NO:10) and D-(SEQ ID NO:10), in which each amino acid is a D-amino acid residue, are tested for % growth reduction of melanoma cell lines WM852 (grown in 2% tumor media or PF media), WM983A (grown in 2% tumor media or PF media), WM793 (grown in 2% tumor media), and WM1985 (grown in PF media) according to the procedure of Example 4, except that only a concentration of 25 μg/ml was employed for (SEQ ID NO:10), and concentrations of 1.0, 2.5, 5.0, 10.0, and 25.0 μg/ml were employed for D-(SEQ ID NO:10).

[13] = tested on: melanoma cell line WM1985; experiment: Melanoma growth reduction (Example 5); settings: dose 25 μg/ml, PF media
Experimental: as §1, §2, §3

melanoma cell line WM852 [14] = experiment: Melanoma growth reduction (Example 5); settings: dose 25 μg/ml
Experimental: as §1, §2, §3

melanoma cell line WM793 = experiment: Melanoma growth reduction (Example 5); settings: dose 25 μg/ml, 2% tumor media
Experimental: as §1, §2, §3

E. coli ATCC 25922 = experiment: Antibacterial MIC assay, microtiter broth dilution (NCCLS M7-T2); settings: Mueller Hinton broth, 16-20 hours at 37° C.
Experimental: (§4) The procedure for the following antibacterial assay is based upon the guidelines of the National Committee for Clinical Laboratory Standards, Document M7-T2, Volume 8, No. 8, 1988.
(§5) were prepared at a concentration of 512 μpg/ml in sterile deionized distilled water and stored at -70° C.
(§6) 1.5×10^5 CFUs/ml of either S. aureus ATCC 25923, E. coli ATCC 25922, P. aeruginosa ATCC 27853, or C. albicans were added to the wells in full strength Mueller Hinton broth (BBL 11443) from a mid-log culture. The inoculums are standarized spectrophotometrically at 600 nm and is verified by colony counts. The plates are incubated for 16-20hours at 37° C., and the minimal inhibitory concentration (MIC) for each peptide is determined. Minimal inhibitory concentration is defined as the lowest concentration of peptide which produces a clear well in the microtiter plate.

P. aeruginosa ATCC 27853 = experiment: as above; settings: Mueller Hinton broth, 16-20 hours at 37° C.
Experimental: as §4, §5, §6

S. aureus ATCC 25923 = experiment: as above; settings: Mueller Hinton broth, 16-20 hours at 37° C.
Experimental: as §4, §5, §6

C. albicans = experiment: MIC assay, microtiter broth dilution (NCCLS M7-T2); settings: Mueller Hinton broth, 16-20 hours at 37° C.
Experimental: as §4, §5, §6

D-(SEQ ID NO:6): each amino acid residue is a D-amino residue or a glycine residue; possibly the same as D-(SEQ ID NO:6)-NH2 (G[dI]G[dK][dF][dL][dK][dS][dA][dK][dK][dF]G[dK][dA][dF][dV][dK][dI][dL][dN][dS]; not fully specified)
Radioactive Counts WM983B ([1]; dose 1 μg/ml): 225000
Radioactive Counts WM983B ([1]; dose 5 μg/ml): 135
Radioactive Counts WM983B ([1]; dose 25 μg/ml): 115
Radioactive Counts WM902B ([2]; dose 1 μg/ml): 49299
Radioactive Counts WM902B ([2]; dose 5 μg/ml): 150
Radioactive Counts WM902B ([2]; dose 25 μg/ml): 75
% Growth Reduction (7 days) WM793 (WM793 (primary melanoma); dose 5 μg/ml): 95.6%
% Growth Reduction (7 days) WM793 (WM793 (primary melanoma); dose 25 μg/ml): 98.4%
% Growth Reduction (7 days) WM-278 (WM278 (primary melanoma); dose 5 μg/ml): 93.1%
% Growth Reduction (7 days) WM-278 (WM278 (primary melanoma); dose 25 μg/ml): 96.1%
% Growth Reduction (7 days) WM1158 ([3]; dose 5 μg/ml): 98.0%
% Growth Reduction (7 days) WM1158 ([3]; dose 25 μg/ml): 98.8%
% Growth Reduction (7 days) WM239-A ([4]; dose 5 μg/ml): 82.0%
% Growth Reduction (7 days) WM239-A ([4]; dose 25 μg/ml): 96.3%
Radioactive Counts WM1791A ([5]; dose 1 μg/ml): 5655
Radioactive Counts WM1791A ([5]; dose 5 μg/ml): 1065
Radioactive Counts WM1791A ([5]; dose 25 μg/ml): 456
Radioactive Counts WM973 (melanoma cell line WM973; dose 1 μg/ml): 81675
Radioactive Counts WM973 (melanoma cell line WM973; dose 5 μg/ml): 7284
Radioactive Counts WM973 (melanoma cell line WM973; dose 25 μg/ml): 770
Radioactive Counts WM39 (melanoma cell line WM39; dose 1 μg/ml): 27635
Radioactive Counts WM39 (melanoma cell line WM39; dose 5 μg/ml): 1308
Radioactive Counts WM39 (melanoma cell line WM39; dose 25 μg/ml): 273
Radioactive Counts WM852 (melanoma cell line WM852 [6]; dose 1 μg/ml): 169000
Radioactive Counts WM852 (melanoma cell line WM852 [6]; dose 5 μg/ml): 2699
Radioactive Counts WM852 (melanoma cell line WM852 [6]; dose 25 μg/ml): 554
Radioactive Counts WM8 (melanoma cell line WM8; dose 1 μg/ml): 19226
Radioactive Counts WM8 (melanoma cell line WM8; dose 5 μg/ml): 248
Radioactive Counts WM8 (melanoma cell line WM8; dose 25 μg/ml): 99
Radioactive Counts WM35 (melanoma cell line WM35; dose 1 μg/ml): 47241
Radioactive Counts WM35 (melanoma cell line WM35; dose 5 μg/ml): 3187
Radioactive Counts WM35 (melanoma cell line WM35; dose 25 μg/ml): 360
Radioactive Counts WM239A ([7]; dose 1 μg/ml): 38053
Radioactive Counts WM239A ([7]; dose 5 μg/ml): 221
Radioactive Counts WM239A ([7]; dose 25 μg/ml): 459
Radioactive Counts WM164 (melanoma cell line WM164; dose 1 μg/ml): 158000
Radioactive Counts WM164 (melanoma cell line WM164; dose 5 μg/ml): 4143
Radioactive Counts WM164 (melanoma cell line WM164; dose 25 μg/ml): 331
Radioactive Counts WM115 (melanoma cell line WM115; dose 1 μg/ml): 222000
Radioactive Counts WM115 (melanoma cell line WM115; dose 5 μg/ml): 373
Radioactive Counts WM115 (melanoma cell line WM115; dose 25 μg/ml): 263
Radioactive Counts WM1158 ([8]; dose 1 μg/ml): 131000
Radioactive Counts WM1158 ([8]; dose 5 μg/ml): 884
Radioactive Counts WM1158 ([8]; dose 25 μg/ml): 2108
Radioactive Counts SkMe123 ([9]; dose 1 μg/ml): 114846
Radioactive Counts SkMe123 ([9]; dose 5 μg/ml): 2028
Radioactive Counts SkMe123 ([9]; dose 25 μg/ml): 429
Radioactive Counts WM1366 ([10]; dose 1 μg/ml): 288000
Radioactive Counts WM1366 ([10]; dose 5 μg/ml): 1910
Radioactive Counts WM1366 ([10]; dose 25 μg/ml): 1692
Radioactive Counts WM983A ([11]; dose 1 μg/ml): 335000
Radioactive Counts WM983A ([11]; dose 5 μg/ml): 5598
Radioactive Counts WM983A ([11]; dose 25 μg/ml): 313

(SEQ ID NO:10): peptide of SEQ ID NO:10, comparator not marked D; possibly the same as (SEQ ID NO:10)-NH2 (KKLLKKLKKLLKKL; not fully specified) [reference compound]
% Growth Reduction (7 days) WM-983A-2% ([12]; 2% tumor media): 0%
% Growth Reduction (7 days) WM983A-PF ([12]; PF media): 60.5%
% Growth Reduction (7 days) WM1985-PF [13]: 43.0%
% Growth Reduction (7 days) WM852-2% (melanoma cell line WM852 [14]; 2% tumor media): 0%
% Growth Reduction (7 days) WM852-PF (melanoma cell line WM852 [14]; PF media): 54.0%
% Growth Reduction (7 days) WM793-2% (melanoma cell line WM793): 8.3%

CCCCCCCC(=O)N[C@H](CC(C)C)C(=O)N[C@H](CCCCN)C(=O)N[C@H](CCCCN)C(=O)N[C@H](CC(C)C)C(=O)N[C@H](CC(C)C)C(=O)N[C@H](CCCCN)C(=O)N[C@H](CCCCN)C(=O)N[C@H](CC(C)C)C(=O)N[C@H](CCCCN)C(=O)N[C@H](CCCCN)C(=O)N[C@H](CC(C)C)C(N)=O [Oct-D-(SEQ ID NO:11)-NH2] (Octanoyl-[dL][dK][dK][dL][dL][dK][dK][dL][dK][dK][dL]-NH2)
MIC E. coli (E. coli ATCC 25922): 8 µg/mL (≈ 5.41 µM)
MIC P. aeruginosa (P. aeruginosa ATCC 27853): 4 µg/mL (≈ 2.71 µM)
MIC S. aureus (S. aureus ATCC 25923): 4 µg/mL (≈ 2.71 µM)
MIC C. albicans (C. albicans): 32 µg/mL (≈ 21.6 µM)
